Assay results published in US8202880B2, “3-hydroxy-6-phenylphenanthridines as PDE4 inhibitors” (NYCOMED GmbH, priority 2002, dated 2012).

| SMILES | melting point |
| --- | --- |
| COc1cc2c(cc1OC)C1CCC(O)CC1N=C2c1ccc(OCC2CC2)c(OCC2CC2)c1 (racemic) [Compound 3, (±)-(3RS,4aRS,10bRS)-6-(3,4-Bis-cyclopropylmethoxyphenyl)-8,9-dimethoxy(1,2,3,4,4a,10b)-hexahydrophenanthridin-3-ol] | 137 to 138 °C |
| COc1cc2c(cc1OC)[C@H]1CC[C@H](O)C[C@H]1N=C2c1ccc(OCC2CC2)c(OCC2CC2)c1 (racemic) [Compound 4, (±)-(3SR,4aRS,10bRS)-6-(3,4-Bis-cyclopropylmethoxyphenyl)-8,9-dimethoxy-1,2,3,4,4a,10b-hexahydrophenanthridin-3-ol] | 172.5 to 174 °C |
